# Laboratory results taken from patent US8293724B2, “Therapeutic applications of fatty acid amide hydrolase inhibitors” (The United States of America, as represented by the …, priority 2007, dated 2012).
# pKi: −log10 of the molar value.
# Legend:
# [1] = system: spontaneously hypertensive rat (SHR); assay: Hemodynamic measurements in anesthetized spontaneously hypertensive rats; type: in vivo
# Experimental: Anandamide, the CB1 receptor antagonist AM251, and the anandamide transport inhibitors AM404 and OMDM-2 were obtained from Tocris; and the CB1 antagonist SR141716 and the CB2 antagonist SR144528 were from the National Institute on Drug Abuse drug supply program. Drugs were mixed in corn oil and sonicated for 5 minutes at 4° C. The mixture was added to 4 parts of Pluronic F68 (Sigma-Aldrich) solution (40 mg/mL) dissolved in water and sonicated to obtain a stable suspension for bolus intravenous injections.
# Rats were obtained from Harlan (Indianapolis, Ind.). Male, 8- to 10-month-old SHR, age-matched male Wistar-Kyoto rats (WKY), and 8- to 10-week-old male Sprague-Dawley rats were maintained on standard rat chow and water ad libitum. Dahl salt-sensitive and salt-resistant rats (male, Rapp strain, 6 weeks old) were maintained for 4 weeks on rat chow containing either 0.12% or 8% NaCl. […] Hypertension was induced in Sprague-Dawley rats by chronic infusion of angiotensin II (60 ng/min) via an osmotic minipump (Imig et al. Hypertension 2002; 39: 690-694. Rats were used 10 to 12 days after implantation of the minipump.
# For hemodynamic measurements, rats were anesthetized with pentobarbital sodium (60 mg/kg IP) and tracheotomized to facilitate breathing. Animals were placed on controlled heating pads, and core temperature, measured via a rectal probe, was maintained at 37° C. A microtip pressure-volume catheter (SPR-838; Millar Instruments) was inserted into the right carotid artery and advanced into the left ventricle (LV) under pressure control as described previously. Polyethylene cannulae (P50) were inserted into the right femoral artery and vein for measurement of mean arterial pressure (MAP) and administration of drugs, respectively. […] Heart rate, maximal LV systolic pressure, MAP, and maximal slope of systolic pressure increment (+dP/dt) were computed with a cardiac pressure-volume analysis program (PVAN2.9; Millar). Cardiac output calculated and corrected according to in vitro and in vivo volume calibrations with PVAN2.918 was normalized to body weight (cardiac index [CI]). Total peripheral resistance index (TPRI) was calculated by the equation TPRI=MAP/CI. In 3 experiments, drugs were microinjected into the fourth cerebral ventricle as described by Ramirez-Gonzalez et al. Circ Res. 1983; 53, 150-157.
# Time-dependent variables were analyzed by ANOVA followed by the Dunnett post hoc test. In other cases, the Student t test was used, as appropriate. Values with P<0.05 were considered statistically significant.
# [2] = system: male DIO mice (wild-type C57Bl6/J on high-fat diet); assay: Intraperitoneal glucose tolerance test in wild-type mice with diet-induced obesity; type: in vivo; conditions: AM3506 1 mg/kg i.p., 60 min before glucose 1.5 g/kg i.p., 1 mg/kg
# Experimental: Male C57Bl6/J mice, wild-type or liver-specific CB1 receptor knockout, were kept on a diet containing 60% of calories as fat (Research Diets Inc) for 14 weeks, by which time both strains have become fat due to increased adipose mass. […] Sixty minutes later the mice received 1.5 g/kg glucose i.p. and blood glucose levels were monitored for 2 hours.
# CB1 cannabinoid receptor = CB1 cannabinoid receptor (Homo sapiens, UniProt P21554); assay: Affinity for the CB1 cannabinoid receptor; type: binding
# Sequence of CB1 cannabinoid receptor (P21554 whole entry): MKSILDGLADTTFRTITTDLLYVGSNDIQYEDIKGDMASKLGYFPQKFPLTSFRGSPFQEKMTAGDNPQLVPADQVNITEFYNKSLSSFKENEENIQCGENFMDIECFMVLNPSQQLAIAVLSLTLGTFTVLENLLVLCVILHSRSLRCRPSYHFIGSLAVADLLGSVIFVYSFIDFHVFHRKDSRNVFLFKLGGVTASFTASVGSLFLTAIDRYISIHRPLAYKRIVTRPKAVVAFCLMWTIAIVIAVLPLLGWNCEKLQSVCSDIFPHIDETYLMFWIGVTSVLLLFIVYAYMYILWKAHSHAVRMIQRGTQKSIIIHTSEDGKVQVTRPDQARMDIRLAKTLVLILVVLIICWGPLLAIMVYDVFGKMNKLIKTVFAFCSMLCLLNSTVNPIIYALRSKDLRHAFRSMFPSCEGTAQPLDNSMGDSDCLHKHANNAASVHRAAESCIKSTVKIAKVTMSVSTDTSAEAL
# FAAH [3] = target: T1, FAAH (Rattus norvegicus, UniProt P97612); assay: Hepatic FAAH activity in SHR and WKY after i.p. treatment; type: in vivo; conditions: AM3506 1 mg/kg, n=3-5
# T1 construct: from tissue; host or cells: liver of SHR and WKY rats treated in vivo
# T1 sequence (P97612 1-579): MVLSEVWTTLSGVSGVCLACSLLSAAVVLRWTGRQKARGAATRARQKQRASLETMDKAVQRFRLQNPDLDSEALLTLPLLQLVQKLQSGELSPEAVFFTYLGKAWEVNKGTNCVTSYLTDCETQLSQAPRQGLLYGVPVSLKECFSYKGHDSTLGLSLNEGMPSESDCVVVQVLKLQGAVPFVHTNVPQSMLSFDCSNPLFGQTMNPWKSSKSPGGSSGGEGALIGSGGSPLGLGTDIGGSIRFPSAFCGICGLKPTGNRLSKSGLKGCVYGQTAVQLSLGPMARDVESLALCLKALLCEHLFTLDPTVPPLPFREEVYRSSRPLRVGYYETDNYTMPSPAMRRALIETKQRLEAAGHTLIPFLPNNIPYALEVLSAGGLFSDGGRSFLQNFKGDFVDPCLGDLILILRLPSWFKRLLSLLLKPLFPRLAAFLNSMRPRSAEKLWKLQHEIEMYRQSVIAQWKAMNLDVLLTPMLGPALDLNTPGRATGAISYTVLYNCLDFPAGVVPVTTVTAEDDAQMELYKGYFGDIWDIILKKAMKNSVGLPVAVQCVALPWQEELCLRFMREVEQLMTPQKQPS
# FAAH [4] = target: T2, FAAH (Mus musculus, UniProt O08914); assay: FAAH activity in brain and liver homogenates following in vivo administration; parameters: species or system mice
# T2 construct: the brain and liver removed, and tissue homogenates prepared as described above; from tissue; host or cells: mouse brain and liver homogenates after in vivo dosing
# T2 sequence (O08914 1-579): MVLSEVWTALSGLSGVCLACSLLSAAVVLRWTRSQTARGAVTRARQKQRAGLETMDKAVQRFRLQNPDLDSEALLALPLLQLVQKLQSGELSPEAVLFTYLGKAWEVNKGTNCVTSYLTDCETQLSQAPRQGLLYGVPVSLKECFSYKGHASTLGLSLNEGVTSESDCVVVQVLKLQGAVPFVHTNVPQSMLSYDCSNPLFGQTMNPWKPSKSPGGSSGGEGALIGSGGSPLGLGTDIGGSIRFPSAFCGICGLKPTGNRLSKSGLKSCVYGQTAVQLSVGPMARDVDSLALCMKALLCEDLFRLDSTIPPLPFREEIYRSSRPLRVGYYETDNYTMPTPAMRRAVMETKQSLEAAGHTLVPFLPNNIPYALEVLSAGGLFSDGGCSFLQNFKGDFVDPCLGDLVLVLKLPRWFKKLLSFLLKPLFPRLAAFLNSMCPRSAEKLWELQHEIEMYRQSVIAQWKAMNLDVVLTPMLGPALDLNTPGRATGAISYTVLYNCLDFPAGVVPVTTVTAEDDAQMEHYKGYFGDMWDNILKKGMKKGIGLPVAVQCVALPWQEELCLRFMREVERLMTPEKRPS
# Experimental: For the experiments illustrated in FIG. 3, FAAH activity was assessed through a different method not requiring TLC separation, as described by Jonsson et al: Br. J. Pharmacol. 133:1263-1275, 1997. […] The mice were sacrificed one hour later, the brain and liver removed, and tissue homogenates prepared as described above. [^3H]Anandamide labeled on the ethanolamide moiety was added to the homogenate and incubated at 37° C. for 10 min. The homogenate was then extracted twice with chloroform:methanol 1:1 and the radioactivity in the aqueous phase (containing the released ethanolamide) was counted.
# [5] = AM3506 1 mg/kg versus URB597 10 mg/kg
# [6] = AM3506 bolus 1 mg/kg, anesthetized SHR, FIG. 7
smiles,measurement,setting,value
O=S(=O)(F)CCCCCc1ccc(O)cc1 [AM3506],lowering of blood pressure,"[1]; AM3506 0.3 mg/kg i.v., SHR",90 mmHg
same,dose equivalence in producing hypotension,[1]; [5],equieffective with 10 mg/kg URB597
same,cardiac contractility,[1]; [6],significantly decreases
same,cardiac output,[1]; [6],reduced
same,left ventricular end systolic pressure (LVESP),[1]; [6],decreases
same,maximal slope of the systolic pressure increment (dP/dt),[1]; [6],decrease
same,stroke volume,[1]; [6],reduced
same,blood pressure effect,"[1]; AM3506 intravenously 1 mg/kg in 50 μl, anesthetized SHR, FIG. 1",hypotensive effect
same,glucose intolerance,[2],had no such effect
same,pKi,CB1 cannabinoid receptor,6.72
same,reduction of hepatic FAAH activity,FAAH [3]; SHR,11.1±0.04%
same,reduction of hepatic FAAH activity,FAAH [3]; WKY,6.7±0.2%
same,inhibition of FAAH in liver,FAAH [4]; AM3506 1 mg/kg,devoid of inhibitory potency in liver
same,dose equivalence in inhibition of FAAH in brain,FAAH [4]; [5],equieffective with 10 mg/kg URB597
